Key:
ovariectomized rats [1] = assay: Ovariectomized rats: uterus wet weight; type: in vivo, rat; conditions: rat, in vivo
Source text: (§1) Ten weeks old Female Fischer rats (F344/N, Japan SLC, Shizuoka, Japan) were used. Rats were grouped to eliminate the effect of body weight between each group and housed with free access to food and water. Animals were anesthetized with Nembutal (Abbott Laboratories, Chicago, Ill.) and the ovaries were removed. In sham-operated group, ovaries were only touched with tweezers. Administration of compounds was started one day after the operation.
(§2) Estradiol (Sigma-Aldrich, St. Louis, Mo.) was dissolved in DMSO to 150 mg/mL then diluted with sesame oil to 0.15 mg/mL. The compounds in Examples 736 and 814, and Raloxifene were suspended in sesame oil to 5, 5 and 1.5 mg/mL, respectively. Samples were divided into aliquots for daily administration and preserved at −18° C. until use.
(§3) The samples were orally administered at 2 mL/kg. Administration was carried out once a day from Monday to Friday for 8 weeks.
After animals were sacrificed by decapitation, uterus was removed and adipose tissue and vagina was separated from uterus prior to uterus weight measurement.

[2] = test system: MCF-7 breast cancer cells; assay: MCF-7 growth analysis (estrogen agonist and antagonist activity, MTT assay); type: cell-based; conditions: Homo sapiens; for activity at 0.1 µM: MCF7, MCF-7, 72 hours, growth rate of diluent control = 100, of 17β-estradiol (1 nM) = 200, read-out: Agonist activity: growth rate (100 nM test compound); for IC50: MCF7, MCF-7 growth with 17β-estradiol (10 pM) present simultaneously, 72 hours
Method: Test Example 2 determines the estrogen agonist and antagonist activities of the compound according to the present invention in reproduction system cells. […] The present test was carried out according to the following procedures. MCF-7 breast cancer cells were cultured in the preservation medium until the compound evaluation. The preservation medium is the MEM (minimum essential medium, phenol red-free, Gibco, ##51200-038) supplemented with 10% (volume/volume) fetal bovine serum (FBS), 2 mM L-glutamine, 1 mM sodium pyruvate, non-essential amino acids (0.1 mM, Gibco, #15240-062), and antibiotic-antimycotic solution ( 1/50 of culture medium volume, Gibco). Five days prior to analysis, the preservation medium was exchanged with analytical medium to which 10% charcoal-stripped fetal bovine serum (charcoal-FBS) was added instead of 10% FBS, so as to deprive the MCF-7 cells of endogenous steroids. Twenty-four hours after exchange to the analytical medium, the MCF-7 cells were removed from the preservation flask using cell isolation medium (trypsin-EDTA solution, Gibco). The cells were washed with analytical medium once, and cell suspension at 50,000 cell/ml was prepared using the analytical medium. The prepared cell suspension was added to a 96 well flat-bottomed microculture at […] (5,000 cells) per well, the cells were cultured in a 5% CO2 incubator for 24 hours at 37° C., to equilibrate the cells after cell transfer. […] The cells were further cultured in the 5% CO2 incubator for 72 hours at 37° C. After culturing, the cell growth was examined by the MTT assay. MTT assay was carried out as the following protocols. MTT solution at 8 mg/ml (MTT dissolved in phosphate saline water buffer) was added to the microculture at 10 μl/well, and the cells were cultured in the 5% CO2 incubator for 30 minutes at 37° C. Thereafter, resulting from the reduction of MTT by the cells, formazan crystals were dissolved by adding a dissolution buffer (400 g/l of an aqueous solution of SDS (50%) and dimethylformamide (50%)) to the microculture at 100 μl/well, and incubated the microculture for more than 4 hours in the dark. For each well of the microculture, the optical density at 590 nm due to the dissolved formazan crystals was measured.

[3] = target: T1, estrogen receptor derived from bovine uterus (Bos taurus, UniProt P49884); assay: In vitro estrogen receptor binding assay; conditions: read-out: Estrogen receptor binding affinity: Ki
T1 construct: estrogen receptor derived from bovine uterus was diluted with the assay buffer solution so that 10 to 20 μg total protein was present; from tissue; host or cells: bovine uterus
T1 sequence (P49884 1-596): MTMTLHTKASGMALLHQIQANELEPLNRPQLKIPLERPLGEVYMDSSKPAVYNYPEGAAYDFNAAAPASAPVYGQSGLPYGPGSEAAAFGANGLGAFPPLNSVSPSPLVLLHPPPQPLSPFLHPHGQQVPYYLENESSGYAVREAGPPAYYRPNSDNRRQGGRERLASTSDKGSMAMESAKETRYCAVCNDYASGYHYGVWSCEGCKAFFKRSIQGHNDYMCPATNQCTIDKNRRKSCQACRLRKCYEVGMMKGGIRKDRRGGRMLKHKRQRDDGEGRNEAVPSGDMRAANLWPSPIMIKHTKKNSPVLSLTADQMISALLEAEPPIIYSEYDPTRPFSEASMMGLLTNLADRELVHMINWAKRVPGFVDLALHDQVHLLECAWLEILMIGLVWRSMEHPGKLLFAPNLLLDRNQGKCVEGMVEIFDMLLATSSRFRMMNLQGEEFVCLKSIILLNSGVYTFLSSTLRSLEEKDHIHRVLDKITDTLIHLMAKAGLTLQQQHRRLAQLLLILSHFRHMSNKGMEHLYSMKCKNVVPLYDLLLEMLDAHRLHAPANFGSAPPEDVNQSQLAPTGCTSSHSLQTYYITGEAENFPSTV
Method: The binding affinity of the compound according to the present invention to estrogen receptor was measured using an in vitro estrogen receptor binding assay. The binding affinity measures the ability of the compound according to the present invention to remove [^3H]-estradiol from estrogen receptor derived from bovine uterus. The following materials were used in this assay: (1) the assay buffer solution was 20 mM Tris/HCl (pH 7.5) containing 1 mM dithiothreitol (DTT), 1 mM EDTA and 10% glycerol; (2) radioactive ligand was [^3H]-estradiol purchased from Amersham Life Science; (3) the cold ligand was diethylstilbestrol purchased from sigma (Sigma); and (4) the estrogen receptor was derived from bovine uterus. The compound to be tested was prepared as a 10% DMSO solution. [^3H]-estradiol was dissolved in the assay buffer solution so as to obtain a final concentration of 1 nM. […] Each plate contains total binding, non-specific binding and the binding which were not inhibited by various concentrations of the compound. The plate was incubated for 1 hour at room temperature. […] These mixtures were centrifuged, and the supernatant thereof was evaluated for its radioactivity using a liquid scintillation counter. Specific binding was calculated by subtracting non-specific binding dpm (counts remaining in the supernatant obtained by centrifugal separation of a reaction mixture containing estrogen receptor derived from bovine uterus, radioactive ligand and excess cold ligand) from the total binding dpm (counts remaining in the supernatant obtained by centrifugal separation of a reaction mixture containing estrogen receptor derived from bovine uterus and radioactive ligand only). The effectiveness of the compound was evaluated by Ki. […] C is the concentration of [^3H]-estradiol in the reaction mixture, and Kd is the [^3H]-estradiol dissociation constant. The Kd was determined by Scatchard analysis. That is to say, various concentrations of [^3H]-estradiol were used to measure the concentration of specifically bound [^3H]-estradiol, which served as the horizontal axis, the value which was obtained by dividing the concentration of specifically bound [^3H]-estradiol by the concentration [^3H]-estradiol not bound to the receptor served as the vertical axis to produce a plot, and the negative value of the inverse of the slope of the resulting straight line was used as Kd.

ovariectomized rats [4] = assay: Bone resorption in ovariectomized rats: deoxypyridinoline in urine; type: in vivo, rat; conditions: for Deoxypyridinoline, 5 weeks / Deoxypyridinoline, 8 weeks: OVX rats, 10 mg/kg orally once a day Monday to Friday, urine; for Effect on excretion of deoxypyridinoline in urine (in words): ovariectomized rats, after 5 and 8 weeks administrations
Source text: as §1, §2, §3
Urine was gathered overnight (17 hours) using the metabolic cage under fasting. The amount of urinary deoxypyridinoline was measured with ELISA kit, Osteorincs-DPD (Sumitomo Seiyaku Biomedical Co., Ltd., Osaka, Japan) and evaluated as total amount produced in 17 hours or as the amount per 1 mg of creatinine.

ovariectomized rats [5] = assay: Ovariectomized rats: bone density of femur and fifth lumbar vertebrae; type: in vivo, rat; conditions: for Bone Mineral Density, Distal femur / Bone Mineral Density, Lumber 5 / Bone Mineral Density, Whole femur: OVX rats, 10 mg/kg orally, 8 weeks; for Effect on bone mineral density of femur and fifth lumbar vertebrae (in words): ovariectomized rats, eight weeks after ovariectomy, compared with sham-operated rats
Source text: as §1, §2, §3
After animals were sacrificed by decapitation, left femur and the fifth lumbar vertebrae were removed. The bone density was measured by using QDR-1000/W (Ho logic Inc., Bedford, Mass.).

Row | Structure (SMILES) | Effect on uterus wet weight (in words) (ovariectomized rats [1]) | activity at 0.1 µM [2] | IC50 [2] | Ki [3] | Deoxypyridinoline, 5 weeks (ovariectomized rats [4]) | Deoxypyridinoline, 8 weeks (ovariectomized rats [4]) | Effect on excretion of deoxypyridinoline in urine (in words) (ovariectomized rats [4]) | Bone Mineral Density, Distal femur (ovariectomized rats [5]) | Bone Mineral Density, Lumber 5 (ovariectomized rats [5]) | Bone Mineral Density, Whole femur (ovariectomized rats [5]) | Effect on bone mineral density of femur and fifth lumbar vertebrae (in words) (ovariectomized rats [5])
1 | COc1ccc([C@@H]2CCc3cc(O)ccc3C2)c(N(CCO)Cc2ccc(OCC(C)(C)N(C)C)cc2)c1 [Example 814, (R)-6-{2-[[4-(2-Dimethylamino-2-methylpropoxy)benzyl](2-hydroxyethyl)amino]-4-methoxyphenyl}-5,6,7,8-tetrahydronaphthalen-2-ol] | slightly increased uterus wet weight to the same level | 95% | 3.23 nM | 8.4 nM | 11.22 ± 1.12 nM/mg/dl | 15.48 ± 0.98 nM/mg/dl | significantly attenuated the excretion of deoxypyridinoline | 0.248 ± 0.002 g/cm^2 | 0.159 ± 0.001 g/cm^2 | 0.237 ± 0.002 g/cm^2 | preserved bone mineral density at the level in sham-operated rats
2 | CCNCCc1ccc(CN(CC)c2cc(OC)ccc2[C@@H]2CCc3cc(O)ccc3C2)cc1 [Example 736, (R)-6-{2-{Ethyl[4-(2-ethylaminoethyl)benzyl]amino}-4-methoxyphenyl}-5,6,7,8-tetrahydronaphthalen-2-ol] | did not influence the wet weight of the uterus at all | 73% | 0.74 nM | 6 nM | 10.48 ± 0.52 nM/mg/dl | 15.33 ± 0.78 nM/mg/dl | significantly attenuated the excretion of deoxypyridinoline | 0.256 ± 0.002 g/cm^2 | 0.156 ± 0.003 g/cm^2 | 0.241 ± 0.002 g/cm^2 | preserved bone mineral density at the level in sham-operated rats

Source: US8399520B2, “Selective estrogen receptor modulator” (Eisai R&D Management Co., Ltd., priority 2002, dated 2013)
